Like-named read-outs stand apart in the source and are kept apart here. Values belong to the compound of their own block, whether it stands above or below them.
How the values were obtained:
human recombinant FPPS = biological target: T1, human recombinant FPPS (Homo sapiens, UniProt P14324)
T1 sequence (P14324 1-419): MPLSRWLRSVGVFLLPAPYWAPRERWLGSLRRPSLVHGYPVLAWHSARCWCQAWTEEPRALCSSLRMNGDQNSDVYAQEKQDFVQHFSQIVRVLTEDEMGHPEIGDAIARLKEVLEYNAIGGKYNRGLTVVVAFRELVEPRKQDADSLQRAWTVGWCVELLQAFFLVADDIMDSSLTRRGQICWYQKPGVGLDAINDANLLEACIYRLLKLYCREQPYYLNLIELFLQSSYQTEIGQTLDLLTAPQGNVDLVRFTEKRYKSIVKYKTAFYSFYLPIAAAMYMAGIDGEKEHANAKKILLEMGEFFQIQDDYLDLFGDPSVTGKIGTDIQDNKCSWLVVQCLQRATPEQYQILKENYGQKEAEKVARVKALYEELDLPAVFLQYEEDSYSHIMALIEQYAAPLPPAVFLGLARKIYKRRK

[1] = test system: phosphorylated Tau protein; test: Phospho-Tau bioassay (INNOTEST PHOSPHO-TAU(181P) ELISA) in human immortalized neurons; assay type: cell-based; settings: compound 100 nM; for P-Tau: 24 hours, SH-SY5Y cell homogenate; for Ratio P/T: P-Tau/T-Tau
total Tau (T-Tau) = test: Total Tau ELISA (Innotest Total Tau, hTau assay) in human immortalized neurons; assay type: cell-based; settings: compound 100 nM, 24 hours, SH-SY5Y cell homogenate
Procedure: (§1) The commercially available INNOTEST® PHOSPHO-TAU(181P) solid-phase enzyme immunoassay was used. In this assay, the phosphorylated Tau protein or fragments are captured by a first monoclonal human specific antibody, HT7 (IgG1). Human immortalized neurons were treated with various compounds at […] and incubated with biotinylated AT270 (IgG1) monoclonal. This antigen-antibody complex is then detected by a peroxidase-labeled streptavidin. After addition of substrate working solution, samples develop a color. The color intensity is a measure for the amount of phosphorylated Tau protein in the sample. This assay has been standardized in numerous research laboratories (for examples see Vanderstichele, H. et al. Alzheimer's & Dementia 2012, 8, 65-73; Zimmermann, R. et al. Journal of Alzheimer's Diseases 2011, 25, 739-745; Blennow, K. et al. Molecular and Chemical Neuropathology 1995, 26, 231-245). Human neuroblastomas SH-SY5Y cell line were used and purchased at the ATCC under the label CRL2266. All compounds were tested in three fixed concentrations at 100 nM, 1 μM and 100 μM in duplicates. We used the 6 well culture plates to grown a significant density of neurons (330,000 cells/well). Cells were grown to 80% confluence in MEM-F12 media with 10% fetal bovine serum, the exposed for 24 hours to the different inhibitors. After one day, the supernatant was removed (and saved at −20° C.). The cell are washed repeatedly in PBS buffer and saved at −80° C. ELISA assays were performed on neuronal cell homogenates using a standardized assay developed by INNOGENETICS called Innotest Total Tau also refers to as the hTau assay and Innotest phospho-Tau (P181). Assays were performed as per manufacturer protocol. The concentration units are in pg of P-Tau per μg of total protein in the cell homogenate. […]; compounds which cause stress or damage to the neurons stimulate the production of P-Tau protein. Lactate dehydrogenase (LDH) activity was measured using a commercial kit; the maximum toxicity was based on % lactic acid dehydrogenases activity in the medium; the control was set at zero.

[2] = test system: Human neuroblastomas SH-SY5Y cell line; test: Lactate dehydrogenase (LDH) activity / toxicity in neurons; assay type: cell-based
Procedure: as §1

[3] = read-out: IC50 (μM) in hFPPS Method 2, ~1 nM hFPPS, 0.2 μM GPP and IPP

SMILES: O=P(O)(O)C(Nc1ncnc2sc(-c3ccc4ccccc4c3)cc12)P(=O)(O)O [Example 10-1]
IC50 (human recombinant FPPS; [3]): 0.063 µM

SMILES: COc1ccc(-c2cc3c(NC(P(=O)(O)O)P(=O)(O)O)ncnc3s2)cc1 [Example 8-1, (((6-(4-methoxyphenyl)thieno[2,3-d]pyrimidin-4-yl)amino)methylene)diphosphonic acid]
IC50 (human recombinant FPPS; [3]): 0.015 µM

SMILES: O=P(O)(O)C(O)(Cc1cccnc1)P(=O)(O)O [Risedronic acid]
P-Tau [1]: 0.17 pg of P-Tau per μg of total protein
T-Tau (total Tau (T-Tau)): 38 pg/µg protein
Toxicity ([2]; compound 100 nM, based on LDH): high
LDH ([2]; compound 100 nM, % lactic acid dehydrogenases activity in the medium, control set at zero): 60%
toxicity to neurons ([2]; human immortalized neurons): highly toxic

SMILES: O=P(O)(O)C(Nc1ncnc2sc(-c3ccc(C4CC4)cc3)cc12)P(=O)(O)O [Example 7-1, (((6-(4-cyclopropylphenyl)thieno[2,3-d]pyrimidin-4-yl)amino)methylene)diphosphonic acid]
IC50 (human recombinant FPPS): 0.036 µM

SMILES: O=P(O)(O)C(Nc1ncnc2sc(-c3ccc(C(F)(F)F)cc3)cc12)P(=O)(O)O [Example 6-1, (((6-(4-(trifluoromethyl)phenyl)thieno[2,3-d]pyrimidin-4-yl)amino)methylene)diphosphonic acid]
IC50 (human recombinant FPPS; [3]): 0.021 µM

SMILES: O=C(O)Cn1c(C(=O)O)cc2ccc3ccccc3c21 [Inhibitor 1]
P-Tau [1]: 0.30 pg of P-Tau per μg of total protein
T-Tau (total Tau (T-Tau)): 65 pg/µg protein
LDH ([2]; human, 24 h, 100 nM): 3%

SMILES: Cc1ccc(-c2cc3c(NC(P(=O)(O)O)P(=O)(O)O)ncnc3s2)cc1 [Example 5-1]
IC50 (human recombinant FPPS; [3]): 0.022 µM

SMILES: O=P(O)(O)C(O)(Cn1ccnc1)P(=O)(O)O [Zoledronic acid]
P-Tau [1]: 0.19 pg of P-Tau per μg of total protein
T-Tau (total Tau (T-Tau)): 34 pg/µg protein
toxicity to neurons [2]: highly toxic
LDH ([2]; human, 24 h, 100 nM): 60%

SMILES: O=P(O)(O)C(Nc1ncnc2sc(-c3ccc(OC4CC4)cc3)cc12)P(=O)(O)O [Example 11-1, (((6-(4-cyclopropoxyphenyl)thieno[2,3-d]pyrimidin-4-yl)amino)methylene)diphosphonic acid]
P-Tau [1]: 0.30 pg of P-Tau per μg of total protein
Ratio P/T [1]: 0.007
T-Tau (total Tau (T-Tau)): 31 pg/µg protein
LDH ([2]; human, 24 h, 100 nM): 0%

Continued, in another order:

IC50 (human recombinant FPPS; [3]): 4.5 µM
SMILES: Cc1ccc(-c2cc3c(NCP(=O)(O)O)ncnc3s2)cc1 [Example 18-1, (((6-(p-tolyl)thieno[2,3-d]pyrimidin-4-yl)amino)methyl)phosphonic acid]

IC50 (human recombinant FPPS): 4.2 µM
SMILES: Cc1ccc(-c2cc3c(NC(c4ccccc4)P(=O)(O)O)ncnc3s2)cc1 (stereo not drawn) [Example 36-1, (phenyl((6-(p-tolyl)thieno[2,3-d]pyrimidin-4-yl)amino)methyl)phosphonic acid]

IC50 (human recombinant FPPS): 2.7 µM
SMILES: Cc1ccc(-c2sc3ncnc(NCP(=O)(O)O)c3c2N)cc1 [Example 21-1, (((5-amino-6-(p-tolyl)thieno[2,3-d]pyrimidin-4-yl)amino)methyl)phosphonic acid]

IC50 (human recombinant FPPS; [3]): 0.011 µM
SMILES: O=P(O)(O)C(Nc1ncnc2sc(-c3ccc(C4CC4(F)F)cc3)cc12)P(=O)(O)O (stereo not drawn) [Example 13-1, (((6-(4-(2,2-difluorocyclopropyl)phenyl)thieno[2,3-d]pyrimidin-4-yl)amino)methylene)diphosphonic acid]

IC50 (human recombinant FPPS): 29 µM
SMILES: O=P(O)(O)CNc1ncnc2sc(-c3ccc(C4CC4)cc3)cc12 [Example 16-1, (((6-(4-cyclopropylphenyl)thieno[2,3-d]pyrimidin-4-yl)amino)methyl)phosphonic acid]
P-Tau [1]: 0.35 pg of P-Tau per μg of total protein
Ratio P/T [1]: 0.007
T-Tau (total Tau (T-Tau)): 47 pg/µg protein
LDH ([2]; human, 24 h, 100 nM): 7%

IC50 (human recombinant FPPS): 1.3 µM
SMILES: Cc1ccc(-c2cc3c(NC(c4ccccc4)P(=O)(O)O)ncnc3s2)cc1Cl (stereo not drawn) [Example 37-1, (((6-(3-chloro-4-methylphenyl)thieno[2,3-d]pyrimidin-4-yl)amino)(phenyl)methyl)phosphonic acid]

IC50 (human recombinant FPPS): 40 µM
SMILES: Cc1ccc(-c2cc3c(N[C@H](Cc4ccccc4)C(=O)O)ncnc3s2)cc1 [Example 33-1]

IC50 (human recombinant FPPS): 10 µM
SMILES: Cc1ccc(-c2sc3ncnc(NCP(=O)(O)O)c3c2N)cc1Cl [Example 41-1]
